Values after ≈ are worked out from the molar mass of the structure shown. Values joined by “and” are separate entries in the source; they are usually repeats but may differ in a detail not shown here. Identical values can stand only once. Like-named read-outs stand apart in the source and are kept apart here.
Legend:
[1] = test system: B16 melanoma cells; experiment: cellular melanin content in B16 melanoma cells; assay type: cell-based; settings: 100-400 μM, 72 h
Experimental: For melanin content, the cells were treated with test compounds or kojic acid in the presence or absence of α-MSH as described above. The cells were washed with PBS and lyzed with 800 μL of 1 N NaOH (Sigma, USA) containing 10% DMSO for 1 h at 80°C. The absorbance at 400 nm was measured. The melanin content was determined from a standard curve prepared from an authentic standard of synthetic melanin (Sigma, USA).

[2] = test system: cellular tyrosinase in B16 melanoma cells; experiment: cellular tyrosinase activity in B16 melanoma cells; assay type: cell-based; settings: for inhibition at 400 µM: Mus musculus, read-out: inhibition on cellular tyrosinase activity; for effect on cellular tyrosinase activity: 100-400 μM
[3] = molecular target: T1, tyrosinase in B16 melanoma cells (Mus musculus, UniProt P11344); experiment: kinetic analysis of tyrosinase activity inhibition, B16 lysate protein, L-DOPA substrate, Lineweaver-Burk plot; assay type: biochemical; settings: for K IS (inhibition constant) / mode of inhibition: L-DOPA substrate; for K IS (inhibition constant): from intercept of Lineweaver-Burk plots; for mode of inhibition: Lineweaver-Burk plot
T1 construct: Each well of a 96-well plate contained 40 μg of lysate protein; endogenous in cells; host or cells: B16 melanoma cells (lysate)
T1 sequence (P11344 19-533): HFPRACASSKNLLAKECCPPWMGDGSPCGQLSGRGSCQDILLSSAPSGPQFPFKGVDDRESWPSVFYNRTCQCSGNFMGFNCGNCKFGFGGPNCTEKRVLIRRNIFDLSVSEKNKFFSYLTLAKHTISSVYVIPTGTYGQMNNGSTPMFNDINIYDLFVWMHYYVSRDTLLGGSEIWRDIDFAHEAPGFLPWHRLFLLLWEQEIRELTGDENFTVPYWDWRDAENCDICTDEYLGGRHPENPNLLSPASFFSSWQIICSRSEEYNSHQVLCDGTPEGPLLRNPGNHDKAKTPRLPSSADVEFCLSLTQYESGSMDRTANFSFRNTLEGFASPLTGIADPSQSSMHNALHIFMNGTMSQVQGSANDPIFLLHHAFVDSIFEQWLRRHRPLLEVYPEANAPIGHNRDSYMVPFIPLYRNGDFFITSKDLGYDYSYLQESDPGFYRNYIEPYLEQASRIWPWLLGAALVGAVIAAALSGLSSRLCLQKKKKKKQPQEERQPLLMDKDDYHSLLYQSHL
Experimental: The cells were treated with test compounds as described above for the determination of tyrosinase activity. […] After incubation at 37°C for 30 min, the absorbance was measured at 475 nm. The inhibition constants for compounds and inhibition type were calculated using Lineweaver-Burk plot. The Lineweaver-Burk plot was widely used to determine important terms in enzyme kinetics, such as K m and V max. The plot provided a useful graphical method for analysis of the Michaelis-Menten equation: V = V max [S]/(K m + [S]). It took the reciprocal gave Lineweaver-Burk plot: 1/V = (K m + [S])/V max [S] = ((K m/V max)(1/ [S])) + (1/V max), where V is the reaction velocity (the reaction rate), K m is the Michaelis-Menten constant, V max is the maximum reaction velocity, and [S] is the substrate concentration. The y-intercept of such a graph was equivalent to the inverse of V max; the x-intercept of the graph represents −1/K m. It also gave a quick, visual impression of the different forms of enzyme inhibition. The inhibition constant (K I or K IS) was generated from the slope of the apparent […]/V max or 1/V max versus the concentrations of compounds.

[4] = test system: B16 melanoma cells; experiment: cell viability, MTT colorimetric assay; assay type: cell-based; settings: for reduction of viable cells: at the higher doses; for cytotoxic activity (reduction of viable cells): dose of 100 μM; for cytotoxic effect: 100, 200, 400 μM, as a whole
Experimental: (§1) To determine the safety of the various compounds, after treatment with the test compounds cell viability was determined by using MTT colorimetric assay and cell apoptosis rate by using AnnexinV-FITC apoptosis analysis kit (Tianjin Sungene Biotech Co., Ltd). 1 × 10^6 cells were added to individual wells of a 24-well plate. […] Cell viability was determined in a colorimetric assay using mitochondrial dehydrogenase activity in active mitochondria to form purple formazan. Apoptosis rate in a fluorochrome assay using flow cytometry (BD, USA).

[5] = cell viability, MTT colorimetric assay; assay type: cell-based; settings: mouse
Experimental: as §1

[6] = test system: B16 melanoma cells; experiment: cell apoptosis rate, AnnexinV-FITC flow cytometry; assay type: cell-based; settings: 72 h
Experimental: as §1

[7] = molecular target: T1, tyrosinase in B16 melanoma cells; experiment: kinetic analysis of tyrosinase activity inhibition, B16 lysate protein, L-DOPA substrate, Lineweaver-Burk plot; assay type: biochemical; settings: read-out: AC50, negative inhibition (acceleration) effect on tyrosinase
[8] = test system: Mushroom tyrosinase; experiment: cell-free mushroom tyrosinase assay of fractions (L-Tyr substrate); assay type: biochemical; settings: L-Tyr as substrate, fractions at 0-12 μg/mL
Experimental: Mushroom tyrosinase and L-Tyr were reconstituted in 50 mM Na2HPO4-NaH2PO4 buffer (pH 6.8) at 1000 U/mL and 2.5 mM, respectively. A mixture of 60 μL of 50 mM Na2HPO4-NaH2PO4 buffer (pH 6.8) and 100 μL L-Tyr was designated as solution 1 (control group). […] Solutions 1 and 2 were added to 40 μL tyrosinase for 6 min reaction time at 37°C, individually. Absorbance of the resulting solutions was recorded every min by Beckman TU-1810 spectrophotometer at 475 nm. One unit of tyrosinase activity was arbitrarily defined as a rate of increase of 1 absorbance unit per min in the initial linear region of a plot of absorbance against time. The tyrosinase activity determined by the increasing absorbance at 475 nm accompanying by the oxidation of the substrates was calculated as the following formula [20]: (1) Tyrosinase activity %=A2/A1×100, where A1 is absorbance at 475 nm with solutions 1 and tyrosinase and A2 is absorbance at 475 nm with solutions 2 and tyrosinase.

[9] = α-MSH-stimulated (100 μM α-MSH)
[10] = absence of α-MSH stimulation, 72 h
[11] = α-MSH-stimulated (100 μM α-MSH), 72 h
[12] = 100 μM, 72 h, percentage of controls (mean ± SD), read-out: Cell viability
[13] = 200 μM, 72 h, percentage of controls (mean ± SD), read-out: Cell viability
[14] = 400 μM, 72 h, percentage of controls (mean ± SD), read-out: Cell viability
[15] = 100 μM, control set as 0% (mean ± SD)
[16] = 200 μM, control set as 0% (mean ± SD)
[17] = 400 μM, control set as 0% (mean ± SD)
[18] = B16 melanoma cells, 100 μM, 72 h, percentage of controls (mean ± SD), read-out: Cell viability
[19] = B16 melanoma cells, 200 μM, 72 h, percentage of controls (mean ± SD), read-out: Cell viability
[20] = B16 melanoma cells, 400 μM, 72 h, percentage of controls (mean ± SD), read-out: Cell viability

## CC(C)=CCC[C@@H](C(=O)O)[C@H]1CC[C@@]2(C)C3=C(CC[C@]12C)[C@@]1(C)CC[C@H](O)C(C)(C)[C@@H]1CC3 [Fa-b, trametenolic acid]
[1]; absence of α-MSH stimulation
  effect on cellular melanin content: reduced cellular melanin content
[1]; [9]
  effect on cellular melanin content: reduced cellular melanin content
[2]; B16, 72 h
  inhibition at 400 µM: 23%
[2]; [10]
  effect on cellular tyrosinase activity: significantly reduced cellular tyrosinase activity
[2]; [11]
  effect on cellular tyrosinase activity: able to inhibit the increase in cellular tyrosinase activity
[3]
  IC50: 7.25 µM
  Ki: 0.9 µM
  K IS (inhibition constant): 0.5 µM
  mode of inhibition: mixed inhibitor
[3]; listed as trametenolic acid
  mode of inhibition: mixed inhibition
[4]
  reduction of viable cells: 29.98%
  cytotoxic activity (reduction of viable cells): 4.55%
[5]; [12]
  viability at 72 h, 100 µM: 96.5 ± 3.08%
[5]; [13]
  viability at 72 h, 200 µM: 85.3 ± 4.13%
[5]; [14]
  viability at 72 h, 400 µM: 70 ± 2.05%
[6]; [15]
  Apoptosis rate: 5.11 ± 4.01%
[6]; [16]
  Apoptosis rate: 6.51 ± 3.31%
[6]; [17]
  Apoptosis rate: 10.09 ± 4.31%

## CC(C(O)CCC(C)(C)O)[C@H]1CC[C@@]2(C)C3=C(CC[C@]12C)[C@@]1(C)CC[C@H](O)C(C)(C)[C@@H]1CC3 (stereo partly drawn) [Fd-a, 3β,22,25-trihydroxy-lanosta-8-ene]
[2]; [10]
  effect on cellular tyrosinase activity: slight or no inhibition
[5]
  viability at 72 h, 100 µM: 96.7 ± 1.01%
  viability at 72 h, 200 µM: 97.1 ± 1.12%
  viability at 72 h, 400 µM: 85 ± 1.51%
[6]; mouse, 100 μM
  Apoptosis rate: 1.21 ± 2.31%
[6]; mouse, 200 μM
  Apoptosis rate: 2.15 ± 3.92%

## O=C(O)c1cccnc1 [Fc-a, nicotinie acid]
[2]; [10]
  effect on cellular tyrosinase activity: slight or no inhibition
[4]
  cytotoxic effect: highest cytotoxic effect in dose-dependent manner
[5]; [18]
  viability at 72 h, 100 µM: 73.5 ± 3.11%
[5]; [19]
  viability at 72 h, 200 µM: 45.3 ± 2.56%
[5]; [20]
  viability at 72 h, 400 µM: 40.5 ± 2.12%
[6]; [15]
  Apoptosis rate: 10.12% and 10.12 ± 1.14%
[6]; [16]
  Apoptosis rate: 25.44% and 25.44 ± 1.53∗∗∗ %
[6]; [17]
  Apoptosis rate: 30.51% and 30.51 ± 1.11∗∗∗ %

## CC(C)=CCC[C@@H](C)[C@H]1CC[C@@]2(C)C3=C(CC[C@]12C)[C@@]1(C)CC[C@H](O)C(C)(C)[C@@H]1CC3 [Fb-b, lanoserol]
[1]; absence of α-MSH stimulation
  effect on cellular melanin content: significantly increased melanin content and cellular tyrosinase activity
[1]; [9]
  effect on cellular melanin content: significantly increased melanin content and cellular tyrosinase activity
[7]
  AC50: 8.43 µM
[2]; 400 μM, 72 h, absence of α-MSH
  increase of cellular tyrosinase activity: 18.21%
[2]; [11]
  effect on cellular tyrosinase activity: significantly increased melanin content and cellular tyrosinase activity
[4]
  cytotoxic effect: a little or no cytotoxic effect
[5]; [18]
  viability at 72 h, 100 µM: 100 ± 2.56%
[5]; [19]
  viability at 72 h, 200 µM: 96.3 ± 2.61%
[5]; [20]
  viability at 72 h, 400 µM: 94.6 ± 3.03%
[6]; [15]
  Apoptosis rate: 0.31 ± 4.37∗∗∗ %
[6]; [16]
  Apoptosis rate: 2.62 ± 3.33∗∗∗ %
[6]; [17]
  Apoptosis rate: 5.12 ± 2.35∗ %

## CC(C)=CC[C@@H](O)[C@@H](C)[C@H]1CC[C@@]2(C)C3=C(CC[C@]12C)[C@@]1(C)CC[C@H](O)C(C)(C)[C@@H]1CC3 [Fb-a, inotodiol]
[1]; absence of α-MSH stimulation
  effect on cellular melanin content: significantly increased melanin content and cellular tyrosinase activity
[1]; [9]
  effect on cellular melanin content: significantly increased melanin content and cellular tyrosinase activity
[2]; 400 μM, 72 h, absence of α-MSH
  increase of cellular tyrosinase activity: 21.24%
[2]; [11]
  effect on cellular tyrosinase activity: significantly increased melanin content and cellular tyrosinase activity
[3]
  AC50: 9.74 µM
[4]
  cytotoxic effect: a little or no cytotoxic effect
[5]; [18]
  viability at 72 h, 100 µM: 99.3 ± 1.53%
[5]; [19]
  viability at 72 h, 200 µM: 99.4 ± 1.41%
[5]; [20]
  viability at 72 h, 400 µM: 98.2 ± 1.35%
[6]; [15]
  Apoptosis rate: 3.91 ± 3.27%
[6]; [16]
  Apoptosis rate: 5.10 ± 2.61∗ %
[6]; [17]
  Apoptosis rate: 6.07 ± 3.53∗∗ %

## C=C(C)[C@@H]1CC[C@]2(CO)CC[C@]3(C)[C@H](CC[C@@H]4[C@@]5(C)CC[C@H](O)C(C)(C)[C@@H]5CC[C@]43C)[C@@H]12 [Fa-a, betulin]
[1]; absence of α-MSH stimulation
  effect on cellular melanin content: reduced cellular melanin content
[1]; [9]
  effect on cellular melanin content: reduced cellular melanin content
[2]; B16, 400 μM, 72 h, absence of α-MSH
  inhibition at 400 µM: 30%
[2]; [10]
  effect on cellular tyrosinase activity: significantly reduced cellular tyrosinase activity
[2]; [11]
  effect on cellular tyrosinase activity: able to inhibit the increase in cellular tyrosinase activity
[3]
  IC50: 5.13 µM
  Ki: 0.4 µM
  K IS (inhibition constant): 0.4 µM
  mode of inhibition: noncompetitive inhibitor
[3]; listed as Betulin
  mode of inhibition: noncompetitive inhibition
[4]
  reduction of viable cells: 34.68%
  cytotoxic activity (reduction of viable cells): 11.69%
[5]; [12]
  viability at 72 h, 100 µM: 88.3 ± 3.21%
[5]; [13]
  viability at 72 h, 200 µM: 75.1 ± 2.65%
[5]; [14]
  viability at 72 h, 400 µM: 65.3 ± 4.41%
[6]; [15]
  Apoptosis rate: 9.01 ± 2.21%
[6]; [16]
  Apoptosis rate: 12.21 ± 3.03%
[6]; [17]
  Apoptosis rate: 15.31 ± 2.90%

## O=c1cc(CO)occ1O [kojic acid, Kojic acid, reference compound]
[1]; absence of α-MSH stimulation
  effect on cellular melanin content: reduced tyrosinase activity as well as melanin content
[1]; [9]
  effect on cellular melanin content: reduced tyrosinase activity as well as melanin content
[2]; [10]
  effect on cellular tyrosinase activity: reduced tyrosinase activity as well as melanin content
[2]; [11]
  effect on cellular tyrosinase activity: reduced tyrosinase activity as well as melanin content
[8]
  IC50, tyrosinase inhibitory activity: 5.23 µg/mL (≈ 36.8 µM)
[5]; [18]
  viability at 72 h, 100 µM: 92.4 ± 4.41%
[5]; [19]
  viability at 72 h, 200 µM: 86.1 ± 2.12%
[5]; [20]
  viability at 72 h, 400 µM: 70.9 ± 3.12%
[6]; [15]
  Apoptosis rate: 9.45 ± 1.15%
[6]; [16]
  Apoptosis rate: 12.36 ± 1.19%
[6]; [17]
  Apoptosis rate: 15.05 ± 2.21%

Source: PMC4145793, “Inhibitory and Acceleratory Effects of Inonotus obliquus on Tyrosinase Activity and Melanin Formation in B16 Melanoma Cells” (Evidence-based Complementary and Alternative Medicine : eCAM, 2014)
